Measured values published in patent publication US20240208992A1, “MACROCYCLES AS CFTR MODULATORS” (Idorsia Pharmaceuticals Ltd, priority 2021, published 2024).
Values belong to the molecule of their own block, whether it stands above or below them.

Biological target: human F508del-CFTR (Homo sapiens, UniProt P13569, DEL508-508)
Assay: F508del-CFTR cell surface expression (corrector activity), DiscoveRx ß-galactosidase complementation chemiluminescence assay in recombinant U2OS cell line;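 also: U2OS cells co-expressing ProLink-tagged F508del-CFTR and a membrane-anchored enzyme acceptor, where more surface CFTR restores β-galactosidase activity measured by chemiluminescence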
Settings: U2OS cell line, 16h compound incubation; for EC50: EC50, F508del-CFTR cell surface expression, geomean values; for Emax: U2OS, in relation to the Emax of the corrector lumacaftor (=100%), arithmetic mean values

Sequence of human F508del-CFTR (P13569 with tags, fused parts or gaps DEL508-508): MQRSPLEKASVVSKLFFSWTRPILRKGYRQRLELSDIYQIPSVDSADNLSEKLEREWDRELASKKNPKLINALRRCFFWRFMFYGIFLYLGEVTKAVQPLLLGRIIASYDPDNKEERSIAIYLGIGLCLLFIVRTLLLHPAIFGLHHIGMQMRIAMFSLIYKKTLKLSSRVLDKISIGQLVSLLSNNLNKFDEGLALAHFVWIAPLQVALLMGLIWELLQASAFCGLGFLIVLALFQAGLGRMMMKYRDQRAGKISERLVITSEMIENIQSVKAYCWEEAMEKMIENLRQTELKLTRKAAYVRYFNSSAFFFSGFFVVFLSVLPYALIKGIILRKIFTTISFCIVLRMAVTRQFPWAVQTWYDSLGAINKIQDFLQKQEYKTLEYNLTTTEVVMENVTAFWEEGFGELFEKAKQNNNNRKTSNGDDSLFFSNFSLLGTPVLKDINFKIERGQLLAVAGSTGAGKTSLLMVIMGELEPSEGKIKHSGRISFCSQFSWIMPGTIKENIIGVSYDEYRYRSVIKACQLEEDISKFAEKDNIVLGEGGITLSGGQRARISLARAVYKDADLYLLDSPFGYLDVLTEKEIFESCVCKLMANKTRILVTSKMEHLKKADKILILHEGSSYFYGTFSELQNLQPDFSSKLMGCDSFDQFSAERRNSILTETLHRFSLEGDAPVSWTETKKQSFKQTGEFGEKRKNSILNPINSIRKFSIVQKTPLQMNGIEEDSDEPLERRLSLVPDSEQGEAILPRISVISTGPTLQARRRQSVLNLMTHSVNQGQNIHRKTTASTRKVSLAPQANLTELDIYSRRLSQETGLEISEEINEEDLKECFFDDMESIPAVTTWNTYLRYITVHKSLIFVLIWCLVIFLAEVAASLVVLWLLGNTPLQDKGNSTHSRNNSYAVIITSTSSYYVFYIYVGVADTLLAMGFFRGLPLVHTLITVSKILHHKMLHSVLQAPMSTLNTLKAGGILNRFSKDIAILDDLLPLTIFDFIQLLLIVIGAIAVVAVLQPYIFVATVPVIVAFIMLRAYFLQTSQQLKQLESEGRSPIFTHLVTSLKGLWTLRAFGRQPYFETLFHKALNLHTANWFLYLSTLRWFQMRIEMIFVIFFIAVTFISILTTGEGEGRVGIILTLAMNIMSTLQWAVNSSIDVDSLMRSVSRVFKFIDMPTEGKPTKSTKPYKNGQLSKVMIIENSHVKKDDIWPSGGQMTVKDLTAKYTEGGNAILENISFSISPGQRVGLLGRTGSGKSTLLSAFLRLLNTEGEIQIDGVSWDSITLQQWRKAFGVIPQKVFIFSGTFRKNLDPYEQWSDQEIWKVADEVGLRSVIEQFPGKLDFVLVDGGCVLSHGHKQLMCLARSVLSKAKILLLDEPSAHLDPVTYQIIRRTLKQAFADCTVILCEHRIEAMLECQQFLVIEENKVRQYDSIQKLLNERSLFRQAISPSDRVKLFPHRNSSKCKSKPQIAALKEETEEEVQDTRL

SMILES: COc1cc(CCNC(=O)[C@@H]2CC(=O)N(C)[C@@H](CC(C)C)C(=O)N(C)C3(CC3)C(=O)N[C@H](Cc3ccccc3)COc3cnc4ccccc4c3C(=O)N2)cc(OC)c1 [Example 109, (3′S,7′S,13′R)-13′-benzyl-N-(3,5-dimethoxyphenethyl)-7′-isobutyl-6′,9′-dimethyl-1′,5′,8′,11′-tetraoxo-2′,3′,4′,5′,6′,7′,8′,9′,11′,12′,13′,14′-dodecahydro-1′H-spiro[cyclopropane-1,10′-[1]oxa[4,7,10,14]tetraazacycloheptadecino[17,16-c]quinoline]-3′-carboxamide]
EC50: 231 nM | Emax: 321%

SMILES: CC(C)C[C@H]1C(=O)N(C)C2(CC2)C(=O)N[C@H](Cc2ccccc2)COc2cnc3ccccc3c2C(=O)N[C@H](C(=O)NCCc2c(F)cccc2F)CC(=O)N1C [Example 110, (3′S,7′S,13′R)-13′-benzyl-N-(2,6-difluorophenethyl)-7′-isobutyl-6′,9′-dimethyl-1′,5′,8′,11′-tetraoxo-2′,3′,4′,5′,6′,7′,8′,9′,11′,12′,13′,14′-dodecahydro-1′H-spiro[cyclopropane-1,10′-[1]oxa[4,7,10,14]tetraazacycloheptadecino[17,16-c]quinoline]-3′-carboxamide]
EC50: 478 nM | Emax: 261%

SMILES: COc1ccc(CCNC(=O)[C@@H]2CC(=O)N(C)[C@@H](CC(C)C)C(=O)N(C)C3(CC3)C(=O)N[C@H](Cc3ccccc3)COc3cnc4ccccc4c3C(=O)N2)cc1 [Example 111, (3′S,7′S,13′R)-13′-benzyl-7′-isobutyl-N-(4-methoxyphenethyl)-6′,9′-dimethyl-1′,5′,8′,11′-tetraoxo-2′,3′,4′,5′,6′,7′,8′,9′,11′,12′,13′,14′-dodecahydro-1′H-spiro[cyclopropane-1,10′-[1]oxa[4,7,10,14]tetraazacycloheptadecino[17,16-c]quinoline]-3′-carboxamide]
EC50: 392 nM | Emax: 242%

SMILES: Cc1cccc(CCNC(=O)[C@@H]2CC(=O)N(C)[C@@H](CC(C)C)C(=O)N(C)C3(CC3)C(=O)N[C@H](Cc3ccccc3)COc3cnc4ccccc4c3C(=O)N2)c1 [Example 112, (3′S,7′S,13′R)-13′-benzyl-7′-isobutyl-6′,9′-dimethyl-N-(3-methylphenethyl)-1′,5′,8′,11′-tetraoxo-2′,3′,4′,5′,6′,7′,8′,9′,11′,12′,13′,14′-dodecahydro-1′H-spiro[cyclopropane-1,10′-[1]oxa[4,7,10,14]tetraazacycloheptadecino[17,16-c]quinoline]-3′-carboxamide]
EC50: 817 nM | Emax: 200%

SMILES: CC(C)C[C@H]1C(=O)N(C)C2(CC2)C(=O)N[C@H](Cc2ccccc2)COc2cnc3ccccc3c2C(=O)N[C@H](C(=O)NCCc2ccc(F)c(F)c2)CC(=O)N1C [Example 113, (3′S,7′S,13′R)-13′-benzyl-N-(3,4-difluorophenethyl)-7′-isobutyl-6′,9′-dimethyl-1′,5′,8′,11′-tetraoxo-2′,3′,4′,5′,6′,7′,8′,9′,11′,12′,13′,14′-dodecahydro-1′H-spiro[cyclopropane-1,10′-[1]oxa[4,7,10,14]tetraazacycloheptadecino[17,16-c]quinoline]-3′-carboxamide]
EC50: 369 nM | Emax: 158%

SMILES: CC(C)C[C@H]1C(=O)N(C)C2(CC2)C(=O)N[C@H](Cc2ccccc2)COc2cnc3ccccc3c2C(=O)N[C@H](C(=O)NCCc2noc(C3CC3)n2)CC(=O)N1C [Example 115, (3′S,7′S,13′R)-13′-benzyl-N-(2-(5-cyclopropyl-1,2,4-oxadiazol-3-yl)ethyl)-7′-isobutyl-6′,9′-dimethyl-1′,5′,8′,11′-tetraoxo-2′,3′,4′,5′,6′,7′,8′,9′,11′,12′,13′,14′-dodecahydro-1′H-spiro[cyclopropane-1,10′-[1]oxa[4,7,10,14]tetraazacycloheptadecino[17,16-c]quinoline]-3′-carboxamide]
EC50: 380 nM | Emax: 250%

SMILES: CC(C)C[C@H]1C(=O)N(C)C2(CC2)C(=O)N[C@H](Cc2ccccc2)COc2cnc3ccccc3c2C(=O)N[C@H](C(=O)NCCc2cc(C3CC3)on2)CC(=O)N1C [Example 118, (3′S,7′S,13′R)-13′-benzyl-N-(2-(5-cyclopropylisoxazol-3-yl)ethyl)-7′-isobutyl-6′,9′-dimethyl-1′,5′,8′,11′-tetraoxo-2′,3′,4′,5′,6′,7′,8′,9′,11′,12′,13′,14′-dodecahydro-1′H-spiro[cyclopropane-1,10′-[1]oxa[4,7,10,14]tetraazacycloheptadecino[17,16-c]quinoline]-3′-carboxamide]
EC50: 329 nM | Emax: 265%

SMILES: CC(C)C[C@H]1C(=O)N(C)C2(CC2)C(=O)N[C@H](Cc2ccccc2)COc2cnc3ccccc3c2C(=O)N[C@H](C(=O)NCCc2cc(F)cc(F)c2)CC(=O)N1C [Example 120, (3′S,7′S,13′R)-13′-benzyl-N-(3,5-difluorophenethyl)-7′-isobutyl-6′,9′-dimethyl-1′,5′,8′,11′-tetraoxo-2′,3′,4′,5′,6′,7′,8′,9′,11′,12′,13′,14′-dodecahydro-1′H-spiro[cyclopropane-1,10′-[1]oxa[4,7,10,14]tetraazacycloheptadecino[17,16-c]quinoline]-3′-carboxamide]
EC50: 331 nM | Emax: 212%

SMILES: CC(C)C[C@H]1C(=O)N2CCCC[C@@H]2C(=O)N[C@H](Cc2ccccc2)COc2cnc3ccccc3c2C(=O)N[C@H](C(=O)NCCc2ccc(-c3ncccn3)cc2)CC(=O)N1C [Example 122, (9S,13S,19aR,22R)-22-benzyl-13-isobutyl-12-methyl-7,11,14,20-tetraoxo-N-(4-(pyrimidin-2-yl)phenethyl)-7,8,9,10,11,12,13,14,17,18,19,19a,20,21,22,23-hexadecahydro-16H-pyrido[2′,1′:6,7][1]oxa[4,7,10,14]tetraazacycloheptadecino[17,16-c]quinoline-9-carboxamide]
EC50: 324 nM | Emax: 292%

SMILES: CC(C)C[C@H]1C(=O)N2CCCC[C@@H]2C(=O)N[C@H](Cc2ccccc2)COc2cnc3ccccc3c2C(=O)N[C@H](C(=O)NCCc2cccc(-c3ncccn3)c2)CC(=O)N1C [Example 123, (9S,13S,19aR,22R)-22-benzyl-13-isobutyl-12-methyl-7,11,14,20-tetraoxo-N-(3-(pyrimidin-2-yl)phenethyl)-7,8,9,10,11,12,13,14,17,18,19,19a,20,21,22,23-hexadecahydro-16H-pyrido[2′,1′:6,7][1]oxa[4,7,10,14]tetraazacycloheptadecino[17,16-c]quinoline-9-carboxamide]
EC50: 873 nM | Emax: 280%

Second part, the molecule after the results:

EC50: 924 nM | Emax: 220%
SMILES: CCc1nc(CCNC(=O)[C@@H]2CC(=O)N(C)[C@@H](CC(C)C)C(=O)N(C)C3(CC3)C(=O)N[C@H](Cc3ccccc3)COc3cnc4ccccc4c3C(=O)N2)no1 [Example 114, (3′S,7′S,13′R)-13′-benzyl-N-(2-(5-ethyl-1,2,4-oxadiazol-3-yl)ethyl)-7′-isobutyl-6′,9′-dimethyl-1′,5′,8′,11′-tetraoxo-2′,3′,4′,5′,6′,7′,8′,9′,11′,12′,13′,14′-dodecahydro-1′H-spiro[cyclopropane-1,10′-[1]oxa[4,7,10,14]tetraazacycloheptadecino[17,16-c]quinoline]-3′-carboxamide]

EC50: 554 nM | Emax: 253%
SMILES: CC(C)C[C@H]1C(=O)N(C)C2(CC2)C(=O)N[C@H](Cc2ccccc2)COc2cnc3ccccc3c2C(=O)N[C@H](C(=O)NCCc2noc(C(C)(C)C)n2)CC(=O)N1C [Example 116, (3′S,7′S,13′R)-13′-benzyl-N-(2-(5-(tert-butyl)-1,2,4-oxadiazol-3-yl)ethyl)-7′-isobutyl-6′,9′-dimethyl-1′,5′,8′,11′-tetraoxo-2′,3′,4′,5′,6′,7′,8′,9′,11′,12′,13′,14′-dodecahydro-1′H-spiro[cyclopropane-1,10′-[1]oxa[4,7,10,14]tetraazacycloheptadecino[17,16-c]quinoline]-3′-carboxamide]

EC50: 776 nM | Emax: 237%
SMILES: Cc1cc(CCNC(=O)[C@@H]2CC(=O)N(C)[C@@H](CC(C)C)C(=O)N(C)C3(CC3)C(=O)N[C@H](Cc3ccccc3)COc3cnc4ccccc4c3C(=O)N2)no1 [Example 117, (3′S,7′S,13′R)-13′-benzyl-7′-isobutyl-6′,9′-dimethyl-N-(2-(5-methylisoxazol-3-yl)ethyl)-1′,5′,8′,11′-tetraoxo-2′,3′,4′,5′,6′,7′,8′,9′,11′,12′,13′,14′-dodecahydro-1′H-spiro[cyclopropane-1,10′-[1]oxa[4,7,10,14]tetraazacycloheptadecino[17,16-c]quinoline]-3′-carboxamide]

EC50: 328 nM | Emax: 248%
SMILES: CC(C)C[C@H]1C(=O)N(C)C2(CC2)C(=O)N[C@H](Cc2ccccc2)COc2cnc3ccccc3c2C(=O)N[C@H](C(=O)NCCc2cc(C(C)(C)C)on2)CC(=O)N1C [Example 119, (3′S,7′S,13′R)-13′-benzyl-N-(2-(5-(tert-butyl)isoxazol-3-yl)ethyl)-7′-isobutyl-6′,9′-dimethyl-1′,5′,8′,11′-tetraoxo-2′,3′,4′,5′,6′,7′,8′,9′,11′,12′,13′,14′-dodecahydro-1′H-spiro[cyclopropane-1,10′-[1]oxa[4,7,10,14]tetraazacycloheptadecino[17,16-c]quinoline]-3′-carboxamide]

EC50: 615 nM | Emax: 354%
SMILES: CC(C)C[C@H]1C(=O)N(C)C2(CC2)C(=O)N[C@H](Cc2ccccc2)COc2cnc3ccccc3c2C(=O)N[C@H](C(=O)NCCc2nc(C3CC3)no2)CC(=O)N1C [Example 121, (3′S,7′S,13′R)-13′-benzyl-N-(2-(3-cyclopropyl-1,2,4-oxadiazol-5-yl)ethyl)-7′-isobutyl-6′,9′-dimethyl-1′,5′,8′,11′-tetraoxo-2′,3′,4′,5′,6′,7′,8′,9′,11′,12′,13′,14′-dodecahydro-1′H-spiro[cyclopropane-1,10′-[1]oxa[4,7,10,14]tetraazacycloheptadecino[17,16-c]quinoline]-3′-carboxamide]
